From patent publication US20240335431A1, “1-H-PYRROLO[2,3-c]PYRIDINE COMPOUNDS” (Acerta Pharma B.V., priority 2023, published 2024)
Like-named read-outs stand apart in the source and are kept apart here.

Tests used:
[1] = biological target: Menin protein (Homo sapiens, UniProt O00255, DEL460-519); assay: Menin/MLL fluorescence polarization (FP) assay; assay type: binding; details: Menin 2 nM, cRho110-Ahx-MBM1/MBM2 peptide 1 nM
Description: Compounds were tested in a biochemical binding assay using Menin protein at 2 nM (N6his-tev-Menin_4i80, PB-20-1459) and the substrate cRho110-Ahx-MBM1/MBM2 peptide (UbiQ, UbiQ-Q20201030; cRh110-Ahx-[…]-QRVPALLLPPG-NH2) at 1 nM.
384 Low volume black plates (Corning #4514) were used. 5 μL/well compound or 3% DMSO was added at 10-fold serial dilutions in DMSO from 10 μM. 5 μL/well cRho110-Ahx-MBM1/MBM2 peptide or binding buffer (50 mM Tris pH 7.5, 50 mM NaCl, 1 mM TCEP, 0.01% BGG, 0.01% Brij-35) was added to all wells. 5 μL/well Menin protein or binding buffer (50 mM Tris pH 7.5, 50 mM NaCl, 1 mM TCEP, 0.01% BGG, 0.01% Brij-35) was added to all wells. Plates were read on an EnVision plate reader (Perkin Elmer) with excitation at 480 nm and emission at 535 nm P+S, and measured every 5 minutes for 180 minutes.
Data were analyzed in Genedata Screener®. IC50 values were determined by plotting % inhibition versus log compound concentration and using a one site dose response model. Raw data signals were normalized using 1% DMSO no Menin as 100% inhibitor control and 1% DMSO with Menin and no inhibitor as 0% inhibitor control.

[2] = biological target: hERG (Homo sapiens (Human), UniProt Q12809); assay: hERG assay 1 (standard), SyncroPatch 384PE; assay type: cell-based; details: CHO cells, room temperature, up to 40 uM
Sequence of hERG (Q12809 whole entry): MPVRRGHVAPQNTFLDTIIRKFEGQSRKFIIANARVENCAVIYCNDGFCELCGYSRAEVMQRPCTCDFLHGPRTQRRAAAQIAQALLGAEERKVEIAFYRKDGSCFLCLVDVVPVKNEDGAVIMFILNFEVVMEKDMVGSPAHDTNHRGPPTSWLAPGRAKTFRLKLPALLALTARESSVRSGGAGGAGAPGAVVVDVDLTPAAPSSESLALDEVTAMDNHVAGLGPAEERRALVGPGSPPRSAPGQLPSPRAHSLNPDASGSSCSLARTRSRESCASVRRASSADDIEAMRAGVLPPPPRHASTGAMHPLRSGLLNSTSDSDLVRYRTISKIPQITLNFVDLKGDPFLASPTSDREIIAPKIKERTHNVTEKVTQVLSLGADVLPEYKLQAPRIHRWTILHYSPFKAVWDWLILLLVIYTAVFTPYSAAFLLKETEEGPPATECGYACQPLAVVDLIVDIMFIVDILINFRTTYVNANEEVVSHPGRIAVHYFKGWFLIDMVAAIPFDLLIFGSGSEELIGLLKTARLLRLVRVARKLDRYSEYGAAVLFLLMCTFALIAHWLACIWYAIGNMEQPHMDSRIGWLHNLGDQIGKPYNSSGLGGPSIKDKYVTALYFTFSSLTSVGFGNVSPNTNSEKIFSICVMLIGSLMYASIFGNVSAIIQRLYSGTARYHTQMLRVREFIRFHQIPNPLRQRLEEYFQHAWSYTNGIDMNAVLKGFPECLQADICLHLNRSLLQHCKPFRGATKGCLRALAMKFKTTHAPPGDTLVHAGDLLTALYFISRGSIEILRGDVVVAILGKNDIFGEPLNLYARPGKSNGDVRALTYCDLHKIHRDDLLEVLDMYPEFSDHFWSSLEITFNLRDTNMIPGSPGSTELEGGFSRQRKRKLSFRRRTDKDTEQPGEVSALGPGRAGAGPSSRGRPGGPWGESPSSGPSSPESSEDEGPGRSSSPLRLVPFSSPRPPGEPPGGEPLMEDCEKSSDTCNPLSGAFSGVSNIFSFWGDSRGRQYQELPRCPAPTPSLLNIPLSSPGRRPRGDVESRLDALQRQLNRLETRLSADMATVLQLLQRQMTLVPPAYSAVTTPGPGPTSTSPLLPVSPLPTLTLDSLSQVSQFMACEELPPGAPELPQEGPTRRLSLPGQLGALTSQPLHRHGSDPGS
Description: Experiments were performed on the SyncroPatch 384PE (Nanion Technologies) high throughput patch clamp platform at room temperature and used medium resistance chips with 4 patch holes per site. hERG-expressing Chinese hamster ovary K1 (CHO) cell line was used in assay-ready format and kept in liquid nitrogen until use. 2 vials of cells (10×10^6 cells per vial) were thawed and added to 20 ml Hepes-buffered saline solution (HBSS). HBSS comprised 140 mM NaCl, 4 mM KCl, 10 mM HEPES and 5 mM Glucose (pH 7.4). The internal patch clamp solution was KF 120 mM, KCl 20 mM, HEPES 10 mM, EGTA 10 mM, and 25 μM Escin (pH 7.2). After the initial sealing process was complete, a seal enhancer solution comprising HBSS supplemented with 10 mM CaCl2 and 1 mM MgCl2 was applied to cells. The external solution was then exchanged (4 times) for external patch clamp solution comprising NaCl 80 mM, KCl 4 mM, HEPES 10 mM, CaCl2 2 mM, MgCl2 1 mM, glucose 5 mM, and NMDG 60 mM (pH7.4). All compounds were dispensed from initial 10 mM DMSO stocks. An industry standard +60/−40 mV voltage protocol was applied every 15 seconds. Compounds were tested in a 6-point cumulative assay (final DMSO concentration 0.33%), with a concentration range of 139 nM to 40 uM. Data were analyzed in Genedata Screener®. IC50 values were determined by plotting % inhibition versus log compound concentration and using a one site dose response model. Only wells that passed acceptance criteria for this platform were used in this analysis (30 MegaOhm seal resistance, Z prime >0.4 and current size >0.2 nA).

[3] = tested on: MOLM-13 cells; assay: Proliferation assay, MOLM-13 (CellTiter-Glo, 7 days); assay type: cell-based, human
Description: (§1) The anti-proliferative effect of compounds was tested in human leukaemia cell lines. The cell lines […] and MV4; 11 each harbor an MLL translocation expressing the MLL fusion proteins MLL-AF9 and MLL-AF4, respectively. Each also express the wildtype protein from the second allele. OCI-AML3 cells carrying the NPM1c gene mutation were also tested.
(§2) MOLM-13 and HEL cells were cultured in RPMI 1640 (Gibco) supplemented with 10% FBS (Gibco) and 1% Pen/Strep (Gibco). MV4; 11 cells were cultured in IMDM (Gibco) supplemented with 10% FBS (Gibco) and 1% Pen/Strep (Gibco). OCI-AML3 cells were cultured in MEMa (Gibco) supplemented with 20% FBS (Gibco) and 1% Pen/Strep (Gibco).
(§3) To assess proliferative effects, 125 MOLM-13 cells, 300 MV4; 11 cells, 75 OCI-AML3 cells, and 200 HEL cells were seeded in 40 μL media per well in 384-well ViewPlates (Perkin Elmer, 6007480). Cell seeding numbers were chosen based on growth curves to ensure linear growth throughout the experiments. Test compounds were added at 3.16-fold serial dilutions in DMSO from […] and DMSO content was normalized to 0.1%. Cells were incubated for 7 days at 37° C. and 5% CO2. A day 0 plate was seeded for each cell line and used as a standard control.
(§4) To measure cell viability, CellTiter-Glo 2.0 (Promega, G9242) luminescent growth indicator was used. 10 μL CellTiter-Glo reagent was added per well. Plates were placed on a plate shaker for 2 minutes in the dark and left to incubate off the shaker for another 8 minutes in the dark, for a total of 10 minutes. Plates were read using an EnVision plate reader (Perkin Elmer) using the Luminescence aperture and a measurement time of 0.1 second.
(§5) Data were analyzed in Genedata Screener®. IC50 values were determined by plotting % inhibition versus log compound concentration and using a one site dose response model. Raw data signals were normalized using 0.1% DMSO media only as background control, 0.1% DMSO with cells no compound as 100% viability (maximum signal), and day 0 0.1% DM with cells no compound as 0% viability (minimum signal).

[4] = tested on: HEL cells; assay: Proliferation assay, HEL control cell line (CellTiter-Glo, 7 days); assay type: cell-based, human
Description: as §1, §2, §3, §4, §5

[5] = Human liver microsomes (HLMs) intrinsic clearance assay; assay type: in vitro ADME
Description: Human liver microsomes (HLMs) were obtained from Corning (UltraPool 150 donors) at a concentration of 20 mg/mL protein. HLMs were stored at −80° C. until use and prior to use, thawed in a 37° C. water bath and then stored on wet ice. DMSO and NADPH were sourced from Solarbio S&T Co Ltd.
2 mL of 10 mM DMSO stock solutions of test compound were added to 198 mL acetonitrile to produce […] concentration. 1325 mL of 20 mg/mL HLM were added to 22260 mL of phosphate buffer to produce the HLM mixture. An 8.334 mg/mL solution of NADPH was prepared in 100 mmol/L pH 7.4 phosphate buffer.
222.5 mL of the HLM mixture and 25 mL of the 10 mM NADPH were added into the incubation plates (1 mL 96 well deep well plate from Thermo). The mixture was vortexed for 10 seconds at 1000 rpm. The incubation plate was pre-warmed in a water bath at 37° C. for 8 minutes. 2.5 mL of the […] stocks of test compound was added to initiate the reaction. The mix was vortexed for 12 seconds at 1000 rpm and incubated at 37° C. The incubation mixture (250 mL) contained 1 mg/mL HLM, 1 mmol/L NADPH and […].
The reaction was quenched by transferring 20 mL of the incubation mixture at 0.5, 5, 10, 15, 20 and 30 minutes into the quenching plate containing 100 mL of cold stop solution (acetonitrile containing internal standards). The plate was vortexed at 800 rpm for 2 minutes.
The quenching plates were centrifuged for 20 minutes at 4000 rpm and 4° C. 40 mL of the supernatant was transferred into a 96-well analysis plate containing 160 mL of water. The analysis plate was shaken at 1000 rpm for 2 minutes and the samples analysed by LC-MS/MS.
Peak areas were determined from extracted ion chromatograms. Percent parent remaining was calculated from peak area of test compound. The slope value, k, was determined by linear regression of the natural logarithm of percent parent remaining versus incubation time. The in vitro half-life (t1/2) was determined from the slope value by the equation: […]
Conversion of the in vitro half-life (min) into in vitro CLint (mL/min/mg proteins) was completed using the equation: […]

[6] = Human hepatocyte intrinsic clearance assay; assay type: in vitro ADME; details: human hepatocytes
Description: Human hepatocytes (LiverPool™ 10-Donor Human hepatocytes (Mixed Gender, PEG-free, Product No. S01205, 5 million cells per vial) were obtained from BioreclamationIVT. DMSO was sourced from Solarbio S&T Co Ltd. Leibovitz's L-15 Medium, Williams' Medium E, GlutaMAX™-1 (100×), HEPES, DPBS (10×) and Human Recombinant Insulin Solution were purchased from Gibco. Isotonic Percoll Solution was purchased from GE Healthcare. Fetal Bovine Serum (FBS) was purchased from Corning.
10 mM dexamethasone stock solution was prepared by dissolving 3.9 mg dexamethasone in 1 mL of DMSO. An Isotonic Percoll Solution was prepared by dilution of Percoll with DPBS (10×). 15 mL of Isotonic Percoll Solution (90% Percoll/10% DPBS) was added to 31.25 mL William's E medium containing 500 mL of GlutaMAX™-1 (100×), 750 mL of 1M HEPES, 2.5 mL of 5% FBS, 50 mL of 4 mg/mL Human Recombinant Insulin Solution and 5 mL of the 10 mM dexamethasone stock.
2 mL of 10 mM DMSO stock solutions of test compound were added to 198 mL acetonitrile to produce 100 mmol/L concentration.
The human hepatocyte vial was thawed at 37° C. in a waterbath. Once thawed, contents were poured into a 50 mL conical tube and centrifuged at 100 g for 10 minutes. The thawing medium was poured out and 4 mL L-15 medium was added. The tube was gently shaken to resuspend the hepatocytes and cells were counted with an appropriate cell counter. 247.5 mL of the hepatocyte suspension was transferred into each well of the plate and pre-warmed at 600 rpm and 50° C. to enable the temperature to rise to 37° C.
2.5 mL of the […] test compound solution was added to initiate the reaction (final concentration […]) and incubated at 37° C. with shaking at 900 rpm. At 0.5, 5, 15, 30, 45, 60, 80, 100 and 120 minutes, 20 mL was taken into a quenching solution of acetonitrile containing internal standards. The mix was vortexed at 800 rpm for 2 minutes followed by centrifugation for 20 minutes at 4000 rpm at 4° C. 40 mL of supernatant was transferred into a 96 well analysis plate containing 160 mL of water in each well. The analysis plate was shaken at 100 rpm for 2 minutes prior to analysis by LC-MS/MS.
Peak areas were determined from extracted ion chromatograms. Percent parent remaining was calculated from peak area of test compound. The slope value, k, was determined by linear regression of the natural logarithm of percent parent remaining versus incubation time.
The in vitro intrinsic clearance (in vitro CLint in mL/min/10^6 cells) was determined from the slope value using the following equation: […]
where V is the incubation volume (0.25 mL) and N is the number of hepatocytes per well (0.25×10^6 cells).

[7] = human, microsomes, 1 µM, pH 7.4

Sequence of Menin protein (O00255 with tags, fused parts or gaps DEL460-519): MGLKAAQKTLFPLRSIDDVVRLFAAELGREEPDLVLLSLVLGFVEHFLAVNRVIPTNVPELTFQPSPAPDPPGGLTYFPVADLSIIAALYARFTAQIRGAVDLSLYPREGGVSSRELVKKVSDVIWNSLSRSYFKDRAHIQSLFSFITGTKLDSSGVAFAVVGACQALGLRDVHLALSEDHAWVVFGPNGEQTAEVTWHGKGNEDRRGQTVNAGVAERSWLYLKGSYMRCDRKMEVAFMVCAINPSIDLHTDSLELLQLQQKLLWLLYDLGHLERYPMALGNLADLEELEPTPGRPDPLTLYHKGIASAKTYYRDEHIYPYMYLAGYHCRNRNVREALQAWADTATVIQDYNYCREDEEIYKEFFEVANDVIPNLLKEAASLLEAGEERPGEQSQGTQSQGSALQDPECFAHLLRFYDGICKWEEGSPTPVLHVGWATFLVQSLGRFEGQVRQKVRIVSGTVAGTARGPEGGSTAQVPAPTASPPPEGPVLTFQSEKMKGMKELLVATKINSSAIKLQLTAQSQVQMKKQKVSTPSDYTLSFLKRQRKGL

SMILES | IC50 [1] | HLM CLint [5, 7] | IC50 ([3]; Homo sapiens, MOLM-13, 168 h) | microsomal CLint at 1 µM ([5]; human, microsomes, pH 7.4, HLM CLint) | IC50 [2] | IC50 [3] | IC50 [4] | HH CLint [6] | HLM CLint ([5]; 1 mg/mL HLM, NADPH) | IC50 ([4]; Homo sapiens, HEL, 168 h)
CCN(C(=O)c1cc(F)ccc1-n1c(C)c(C(=O)[C@@H]2CCN(C(=O)[C@@H]3CCC4(CC4)N3)[C@@H](C)C2)c2ccncc21)C(C)C (single isomer, unassigned) [Example 52-4, N-Ethyl-5-fluoro-N-isopropyl-2-(2-methyl-3-((2R*,4S*)-2-methyl-1-((S)-4-azaspiro[2.4]heptane-5-carbonyl)piperidine-4-carbonyl)-1H-pyrrolo[2,3-c]pyridin-1-yl)benzamide] | 2.47 µM | – | – | – | – | 1.09 µM | > 10 µM | 7.9 μl/min/1E6 | >300 µL/min/mg | –
Cc1c(C(=O)[C@@H]2CCN(C(=O)[C@H]3NC[C@@H]4C[C@@H]43)[C@@H](C)C2)c2ccncc2n1-c1ccc(F)cc1C(=O)N(CC(F)(F)F)C(C)C (single isomer, unassigned) [Example 53-2, 2-(3-((2R*,4S*)-1-((1S,2S,5R)-3-Azabicyclo[3.1.0]hexane-2-carbonyl)-2-methylpiperidine-4-carbonyl)-2-methyl-1H-pyrrolo[2,3-c]pyridin-1-yl)-5-fluoro-N-isopropyl-N-(2,2,2-trifluoroethyl)benzamide] | 7.8 µM | 77 µL/min/mg | – | – | – | 1.3 µM | > 10 µM | – | – | –
CCN(C(=O)c1cc(F)ccc1-n1c(C)c(C(=O)[C@@H]2CCN(C(=O)[C@@H]3CCC4(CC4)N3)[C@@H](C)C2)c2ccncc21)C(C)C (single isomer, unassigned) [Example 52-3, N-Ethyl-5-fluoro-N-isopropyl-2-(2-methyl-3-((2R*,4S*)-2-methyl-1-((S)-4-azaspiro[2.4]heptane-5-carbonyl)piperidine-4-carbonyl)-1H-pyrrolo[2,3-c]pyridin-1-yl)benzamide] | 5.95 µM | – | – | – | – | 1.47 µM | > 10 µM | 5.7 μl/min/1E6 | 210 µL/min/mg | –

More lines, main results first:

IC50 [1] | HLM CLint [5, 7] | IC50 ([3]; Homo sapiens, MOLM-13, 168 h) | microsomal CLint at 1 µM ([5]; human, microsomes, pH 7.4, HLM CLint) | SMILES | IC50 [2] | IC50 [3] | IC50 [4] | HH CLint [6] | HLM CLint ([5]; 1 mg/mL HLM, NADPH) | IC50 ([4]; Homo sapiens, HEL, 168 h)
> 10 µM | 95 µL/min/mg | – | – | Cc1c(C(=O)C2CCN(C(=O)[C@H]3NC[C@@H]4C[C@@H]43)CC2)c2ccncc2n1-c1ccc(F)cc1C(=O)N(C(C)C)[C@H](C)C(F)(F)F (single isomer, unassigned) [Example 57-2] | > 40 µM | > 10 µM | > 10 µM | – | – | –
0.102 µM | – | 0.094 µM | 59 µL/min/mg | [2H]C([2H])([2H])C([2H])(N(C(=O)c1cc(F)ccc1-n1c(C)c(C(=O)C2CCN(C(=O)[C@@H]3CCC(C)(C)N3)CC2)c2ccncc21)C([2H])(C([2H])([2H])[2H])C([2H])([2H])[2H])C([2H])([2H])[2H] [Example 59, (S)-2-(3-(1-(5,5-Dimethylpyrrolidine-2-carbonyl)piperidine-4-carbonyl)-2-methyl-1H-pyrrolo[2,3-c]pyridin-1-yl)-5-fluoro-N,N-bis(propan-2-yl-d7)benzamide] | > 40 µM | – | – | – | – | > 10 µM
